Reference: article PMC5323270 (SLAS discovery, 2016)
Values after ≈ are worked out from the molar mass of the structure shown. Read-outs that look alike come from different tables or passages of the source.

Columns and labels:
[1] = test system: M. tuberculosis H37Rv; test: microbe, parasite or virus in culture; format: cell-based; conditions: Mycobacterium tuberculosis, read-out: MIC90 LORA
[2] = test system: M. tuberculosis H37Rv; test: microbe, parasite or virus in culture; format: cell-based; conditions: Mycobacterium tuberculosis, read-out: MIC90 MABA

## CO[C@H]1/C=C/O[C@@]2(C)Oc3c(C)c(O)c4c(O)c(c(/C=N/N5CCN(C)CC5)c(O)c4c3C2=O)NC(=O)/C(C)=C\C=C\[C@H](C)[C@H](O)[C@@H](C)[C@@H](O)[C@@H](C)[C@H](OC(C)=O)[C@@H]1C [Rifampin (RMP), Rifampin]
[1]
  MIC90: 0.46 µM (≈ 0.379 µg/mL)
[2]
  MIC90: 0.13 µM (≈ 0.107 µg/mL)
